Holding throughout (assay type): cell-based
Test [1] concerns SWELL1 KO primary macrophages. Put plainly: Hypotonically-induced currents in SWELL1 KO primary macrophages. The note with it: 210 mOsm, FIG. 8. As to the method:
See FIG. 7 (Panel A, Current over time plot; Panel B, Current voltage plot from (A) above). Current over time of hypotonically-induced currents in SWELL1 KO primary macrophages (210 mOsm) was measured along with DCPIB response. […] See FIG. 8 (Panel A, Current over time plot; Panel B, Current voltage plot from (A) above).

For the next test, the system named is SWELL1 current. Put plainly: Hypotonically-induced currents in wild-type primary macrophages. The note with it: wild-type (WT) primary macrophages, 210 mOsm; FIG. 7.
In test [2] the test system is inflammasome mediated IL-1β secretion from primary macrophages. The test is described as follows: Macrophage inflammasome activation (IL-1β) in response to LPS + MSU crystals. The note with it: LPS priming followed by MSU, FIG. 5. An excerpt:
See FIG. 4 for the structures of the compounds. Mechanical stimulation by MSU crystals function as a physiological activation mechanism for the putatively mechanosensitive SWELL1-LRRC8 channel complex as macrophages engulf MSU and undergo large volume changes. This is analogous to cholesterol crystals that are thought to contribute to NASH by driving simple hepatic steatosis toward fibrotic steatosis. […] First-pass effect from oral delivery, combined with the fact that SN-40X are lipophilic carboxylic acids may conspire to increase hepatic drug concentrations sufficiently to exert anti-inflammatory activity on resident hepatic macrophages and Kupffer cells that contribute to steatohepatitis.

For another test, the system named is RAW 264.7 cells. Put plainly: LPS-induced inflammatory cytokine mRNA expression in RAW 264.7 cells (qRT-PCR). The note with it: 10 μM, 2 hours preincubation, LPS 50 ng/ml for 30 minutes, FIG. 6. As to the method: RAW 264.7 cells were incubated with either vehicle (DMSO) or SN-401 (10 μM) and SN-406 (10 μM) for 2 hours and subsequently, cells were activated with either LPS (50 ng/ml) alone or along with SN-401 (10 μM) and SN-406 (10 μM) for 30 minutes. After the activation cells were harvested for qRT-PCR analysis (see FIG. 6, panels A-C). Relative mRNA expression for selected inflammatory markers, IL1β, TNF-α and CXCL10 from 3 independent experiments. Statistical significance between the indicated groups were calculated by using a two-tailed Student's t-test. Error bars represent mean ±s.e.m. *, P<0.05, **, P<0.01, ***, P<0.001, ****, P<0.0001.
In general terms: Quantitative PCR measures a nucleic acid by following its amplification.

Structures are written as SMILES.

Consider `CCCCC1(C2CCCC2)Cc2cc(OCCCC(=O)O)c(Cl)c(Cl)c2C1=O` (stereo not drawn) [DCPIB, 4-[(2-butyl-6,7-dichloro-2-cyclopentyl-1-oxo-2,3-dihydro-1H-inden-5-yl)oxy]butanoic acid], for which the “response of hypotonically-induced current” value in test [1] is given as “No response”. The “inhibition of hypotonically-induced current” value in the test on SWELL1 current was “inhibition”.

As to `CCCCC1(C2CCCC2)Cc2cc(OCCCC(=O)O)c(Cl)c(Cl)c2C1=O` (stereo not drawn) [SN-401], the “suppression of inflammasome mediated IL-1β secretion” value in test [2] is “fully suppressed”. The “expression of LPS-induced inflammatory cytokine production (relative mRNA IL1β, TNF-α, CXCL10)” value with RAW 264.7 cells is on record as “Inhibit”.

On to `CCCCC1(C2CCCC2)Cc2cc(OCCCCCC(=O)O)c(Cl)c(Cl)c2C1=O` (stereo not drawn) [SN-406], for which, in test [2], the “suppression of inflammasome mediated IL-1β secretion” value is listed as “fully suppressed”. In addition, the “expression of LPS-induced inflammatory cytokine production (relative mRNA IL1β, TNF-α, CXCL10)” value in the test on RAW 264.7 cells was “Inhibit”.

The record behind these values is patent publication US12685717B2, “Suppression of inflammasome activation” (Washington University, priority 2020, dated 2026).
